Measurements: US20150342954A1, “2-BENZYL, 3-(PYRIMIDIN-2-YL) SUBSTITUTED PYRAZOLES USEFUL AS SGC STIMULATORS” (IRONWOOD PHARMACEUTICALS, INC., priority 2011, published 2015)
Read-outs that look alike come from different tables or passages of the source.

Experiments:
[1] = molecular target: T1, soluble guanylate cyclase (sGC) (Homo sapiens, UniProt Q02108+Q02153); assay: sGC-HEK-cGMP assay (run with SNP incubation); type: cell-based; details: for Emax: Table 3A, 10 μM SNP, 100% = 30 μM BAY 41-2272 with 10 μM SNP, read-out: HEK assay Emax-unconstrained (Percent); for HEK MEC-10: concentration that would elicit 10% of the Emax in the presence of 10 μM SNP; for HEK MEC-10 / EC50: Table 3D; for EC50: in the presence of 10 μM SNP
T1 construct: endogenously expressing soluble guanylate cyclase (sGC); endogenous in cells; host or cells: HEK293
T1 sequence (Q02153 1-619): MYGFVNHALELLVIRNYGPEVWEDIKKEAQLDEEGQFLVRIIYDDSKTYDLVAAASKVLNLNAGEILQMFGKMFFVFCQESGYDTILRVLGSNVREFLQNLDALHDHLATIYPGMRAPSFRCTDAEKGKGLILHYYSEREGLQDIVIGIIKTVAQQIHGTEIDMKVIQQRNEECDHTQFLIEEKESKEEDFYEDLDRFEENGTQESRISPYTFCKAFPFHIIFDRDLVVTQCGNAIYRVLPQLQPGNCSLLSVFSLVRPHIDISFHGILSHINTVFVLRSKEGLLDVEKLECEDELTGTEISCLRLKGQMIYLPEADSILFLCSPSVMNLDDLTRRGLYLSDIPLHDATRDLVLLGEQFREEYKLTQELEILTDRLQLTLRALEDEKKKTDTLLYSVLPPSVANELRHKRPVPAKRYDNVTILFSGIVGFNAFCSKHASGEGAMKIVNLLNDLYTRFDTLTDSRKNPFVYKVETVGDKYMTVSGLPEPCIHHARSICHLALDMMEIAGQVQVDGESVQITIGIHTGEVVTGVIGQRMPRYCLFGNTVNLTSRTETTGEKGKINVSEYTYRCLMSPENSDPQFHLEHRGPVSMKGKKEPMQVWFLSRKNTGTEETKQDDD
T1 sequence (Q02108 1-690): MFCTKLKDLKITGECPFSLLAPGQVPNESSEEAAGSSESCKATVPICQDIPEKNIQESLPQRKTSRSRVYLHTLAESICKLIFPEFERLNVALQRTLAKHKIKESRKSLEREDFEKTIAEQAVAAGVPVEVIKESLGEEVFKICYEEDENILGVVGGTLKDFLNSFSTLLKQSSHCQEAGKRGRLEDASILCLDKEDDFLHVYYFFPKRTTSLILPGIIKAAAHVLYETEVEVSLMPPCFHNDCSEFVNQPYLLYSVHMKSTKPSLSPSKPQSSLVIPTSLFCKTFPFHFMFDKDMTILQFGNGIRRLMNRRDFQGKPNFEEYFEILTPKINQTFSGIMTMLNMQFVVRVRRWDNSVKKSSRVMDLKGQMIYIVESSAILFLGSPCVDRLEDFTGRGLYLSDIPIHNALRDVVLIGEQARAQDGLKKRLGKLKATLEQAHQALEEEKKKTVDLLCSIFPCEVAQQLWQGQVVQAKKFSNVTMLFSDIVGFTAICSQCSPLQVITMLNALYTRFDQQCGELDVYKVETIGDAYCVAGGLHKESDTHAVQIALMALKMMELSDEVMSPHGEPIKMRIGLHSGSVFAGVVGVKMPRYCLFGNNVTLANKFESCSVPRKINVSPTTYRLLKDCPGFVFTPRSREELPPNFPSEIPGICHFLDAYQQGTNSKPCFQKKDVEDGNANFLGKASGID
How it was run: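 HEK293 cells with endogenous sGC were pre-treated 15 min at 37 °C with 0.5 mM IBMX, then exposed to test compound plus sodium nitroprusside for 10 min at 37 °C. Cells were lysed in 0.1 M HCl (4 °C, 30 min), and cGMP was quantified by LC/MS against a standard curve. EC50 values came from concentration-response curves.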

[2] = molecular target: T2, Human soluble guanylate cyclase enzyme (hsGC) (Homo sapiens, UniProt Q02108+Q02153); assay: Purified human sGC enzyme synergy assay in the presence of 1 μM sodium nitroprusside (SNP); type: biochemical; details: compound at 30 μM, presence of 1 μM SNP; Table 5A
T2 construct: purchased Enzo Inc. ALX-201-177
T2 sequence (Q02153 1-619): T1 sequence (Q02153 1-619)
T2 sequence (Q02108 1-690): T1 sequence (Q02108 1-690)
How it was run: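 Purified hsGC (5 ng) incubated 30 min at 37 °C with compound (10 or 30 μM final) in Tris pH 8.0, 300 μM GTP, 1 mM IBMX, 2 mM MgCl2, with or without 1 μM SNP; stopped with cold methanol. cGMP quantified against standard curve; specific activity expressed as fold-change over DMSO control.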

[3] = top of concentration-response curve not fitted to 100%
[4] = top of concentration-response curve not fitted to 100%, read-out: HEK assay EC50-unconstrained

| SMILES | Emax [1, 3] | HEK MEC-10 [1] | EC50 ([1]; read-out: HEK assay EC50) | EC50 [1, 4] | Enzyme Activity (increase at 30 μM with SNP) [2] |
| --- | --- | --- | --- | --- | --- |
| Nc1nc(-c2cc(-c3ccon3)n(Cc3ccccc3F)n2)ncc1NC(=O)C1(c2ccccc2)CC1 [Compound 27] | 80 to 100% | B (0.01 to <0.1 μM) | < 20000 nM | 10 to 500 nM | D (10 or <20 fold increase) |
| Nc1nc(-c2cc(-c3ccon3)n(Cc3ccccc3F)n2)ncc1NC(=O)C1(F)CC1 [Compound 35] | 80 to 100% | A (0.001 to <0.01 μM) | < 20000 nM | 10 to 500 nM | E (20 to 30 fold increase) |
| Nc1nc(-c2cc(-c3ccon3)n(Cc3cccc(F)c3F)n2)ncc1NC(=O)C1(C(F)(F)F)CC1 [Compound 40] | 80 to 100% | C (0.1 to <1 μM) | < 20000 nM | 10 to 500 nM | D (10 or <20 fold increase) |
